Results from PubChem BioAssay AID2305 (GlaxoSmithKline (GSK), 2010).
Values joined by “and” are separate entries in the source; they are usually repeats but may differ in a detail not shown here. Equal values may be shown once.

These molecules were tested on P. falciparum 3D7 growth, pLDH absorbance (assay: P. falciparum 3D7 growth inhibition, dose response, strain 3D7 (AID 2305)).
`Cc1[nH]c(C)c(-c2ccc(OCCCc3ccccn3)cc2)c(=O)c1Br` showed an IC50 of 210 nM. `CC(C)COc1ccc(Cl)cc1Cc1ccc(-c2nc3ccc(CCN(C)C)cc3[nH]2)o1` gave an IC50 of 980 nM. For `CC1(C)N=C(N)N=C(N)N1O`, the IC50 was 190 nM. `CCCOc1ccc(-c2nonc2NC(=O)c2cccc(OC)c2)cc1OCCC` gave an IC50 of 1150 nM. In the case of `COc1ccc(N2CCN(CCCCNC(=O)c3ccc(NC(=O)c4ccc(Cl)c(Cl)c4)cc3)CC2)c(OC)c1`, the IC50 is reported as 210 nM. `Cc1[nH]c(C)c(-c2cccc(Oc3ccc(Cl)cc3)c2)c(=O)c1Br` was tested, and the IC50 was 70 nM. With `CCc1cn2c3c(cc(C(=O)N[C@@H](Cc4ccccc4)[C@H](O)CNCCOC)cc13)N(C)S(=O)(=O)CC2` the IC50 was 950 nM. `CCN(CC)C(=NCCCCCCN=C(NC(N)=NCc1ccc(Cl)cc1Cl)N(CC)CC)NC(N)=NCc1ccc(Cl)cc1Cl` showed an IC50 of 220 nM. `COc1cc2nc(NCCCN3CCCCC3)nc(NCc3ccccc3)c2cc1OC` was tested, and the IC50 was 1000 nM. `O=C(Nc1cccc(C(F)(F)F)c1)c1cccc(S(=O)(=O)NC2CCCN(CC3CCCCC3)C2)c1` (stereo not given) showed an IC50 of 860 nM. `Cc1c(Cl)cccc1S(=O)(=O)N1CCCCC(c2ccc(C(F)(F)F)cc2)=N1` gave an IC50 of 790 nM. Molecule `CC12CCC(=O)N1C(C(=O)Nc1cccc(C(=O)Nc3cccc(C(F)(F)F)c3)c1)CS2` (stereo not given) has an IC50 of 360 nM. `Cc1ccc(CN2CCCN(Cc3cccc(NC(=O)c4ccc(-c5ccccc5)cc4)c3)CC2)cc1C` showed an IC50 of 1250 nM. `CC(C)N(Cc1cnc(N)c(C#N)n1)c1ccc(Cl)c(Cl)c1` showed an IC50 of 840 nM. `CCC[C@@H]1CCN[C@H]([C@H](O)c2ccnc3ccc(OC)cc23)C1` gave an IC50 of 730 nM. For `COc1ccc2c(NN=Cc3ccccc3F)ccnc2c1`, the IC50 was 210 nM. In the case of `COc1ccc(NC(=O)Nc2ccc(-c3ccc(-c4nc5ccccc5[nH]4)cc3)cc2)cc1`, the IC50 is reported as 510 nM. Work on `CC(Oc1c(C2CCN(CCCCNC(=O)c3ccc(-c4ccc(C#N)cc4)cc3)CC2)ccc2c1CCCC2)C(N)=O` (stereo not given) yielded an IC50 of 680 nM. In the case of `O=C(Nc1ccc2nccc(N3CCN4CCC[C@H]4C3)c2c1)c1ccc(Cl)c(Cl)c1`, the IC50 is reported as 340 nM. With `Cc1cc([N+](=O)[O-])ccc1NC(=O)Nc1cccc(C(F)(F)F)c1` the IC50 was 720 nM. For `COc1ccc2ncc(F)c(CCN3CC[C@@H](CNCc4cc(C)c5c(c4)OCCO5)C3)c2n1`, the IC50 was 890 nM. With `O=C(CN1CCN(C(C(=O)Nc2cc(C(F)(F)F)ccc2Cl)c2ccccc2)CC1)NC1CC1` (stereo not given) the IC50 was 440 nM. For `O=C(/C=C/c1ccc(Cl)c(Cl)c1)NCc1ccc(CN2CCC(c3c[nH]c4ccccc34)CC2)cc1`, the IC50 was 710 nM. `O=C(Nc1ccc(Cl)c(C(F)(F)F)c1)c1ccc(C(=O)Nc2ccc(Cl)c(C(F)(F)F)c2)cc1` gave an IC50 of 1000 nM. `Nc1nc(N)c2c(ccc3c2ccn3CCCF)n1` was tested, and the IC50 was 150 nM. `CCCCOc1ccc(/C=C/c2ccc(-c3c(C)[nH]c(C)c(Cl)c3=O)s2)cc1` showed an IC50 of 400 nM. Work on `CCCc1cc(Cc2cnc(N)nc2N)cc(CC)c1O` yielded an IC50 of 1320 nM. Work on `O=C(Nc1cccc(C(F)(F)F)c1)c1ccc(S(=O)(=O)NCC2CCCN2CC2CCCCC2)cc1` (stereo not given) yielded an IC50 of 750 nM. Work on `CCCC(N)C(=O)NC1CCN(c2c(F)c(N)c3c(=O)c(C(=O)O)cn4c3c2Oc2ccccc2-4)C1` (stereo not given) yielded an IC50 of 360 nM. `O=C(Cc1ccc(Cl)cc1)NC1CCN(c2ccnc3cc(Cl)ccc23)C1` (stereo not given) gave an IC50 of 230 nM. `CCCCCCN1CCC(CNCc2cccc(Cl)c2)CC1` showed an IC50 of 1220 nM. With `O=C(Nc1ccc2c(c1)CCN2C1CCN(Cc2csc3ccccc23)C1)c1ccco1` (stereo not given) the IC50 was 320 nM. `Cc1cc(C(=O)Nc2ccc(-c3nc4ccccc4[nH]3)cc2)ccc1[N+](=O)[O-]` gave an IC50 of 670 nM. With `CCOC(=O)c1ccc(NC(=O)Nc2cccc(-c3ccc(-c4nc5ccccc5[nH]4)cc3)c2)cc1` the IC50 was 210 nM. `CN(C)c1ccc(C=C2SC(=O)NC2=Nc2ccccc2)cc1` showed an IC50 of 30 nM. Work on `CCN(CC)c1ccc(NC(=S)NC2CCN(CCCCCNC(=O)/C=C/c3ccc(Cl)c(Cl)c3)CC2)cc1` yielded an IC50 of 880 nM. `O=S1N=C(NCCCN(Cc2cccs2)c2ccccn2)C(NCc2ccccc2)=N1` (stereo not given) gave an IC50 of 310 nM. Work on `CCN(CC)CCn1c(=N)n(CC(=O)c2ccc(-c3ccccc3)cc2)c2ccccc21` yielded an IC50 of 1140 nM. For `O=C(NCCNc1ccnc2cc(Cl)ccc12)c1ccccc1F`, the IC50 was 660 nM. With `COc1ccc(CNC2CCN(C)CC2)cc1-c1ccc(S(=O)(=O)NCc2ccccc2)c(F)c1` the IC50 was 800 nM. `CCCSc1nc2c(c(=O)n1Cc1ccco1)C1(CCCCC1)Cc1ccccc1-2` showed an IC50 of 420 nM. `O=C(Nc1ccc(-c2cccc(-c3nc4ccccc4[nH]3)c2)cc1)Nc1ccc2c(c1)OCO2` gave an IC50 of 250 nM. For `Fc1ccc2nc(-c3ccc(-c4cccc(CN5CCN(c6ccncc6)CC5)c4)cc3)[nH]c2c1`, the IC50 was 90 nM. `Cc1ccc(C)c(Cn2ccc3nc(Cl)nc(Cl)c32)c1` was tested, and the IC50 was 910 nM. `COc1ccc2nc3cc(Cl)ccc3c(NCCCCN3CCNCC3)c2c1` gave an IC50 of 180 nM. For `Cc1ccnc(Nc2nc(-c3ccccn3)cs2)c1`, the IC50 was 1000 nM. Molecule `c1ccc(CNCc2ccc(-c3ccc(-c4nc5ccccc5[nH]4)cc3)cc2)cc1` has an IC50 of 340 nM. Molecule `CC(C)(C)NC(=O)C(c1ccc(F)cc1)N(C(=O)c1ccc(CN2CCOCC2)o1)c1ccc(C2CCCCC2)cc1` (stereo not given) has an IC50 of 920 nM. With `Cc1[nH]c(C)c(-c2ccc(OCCn3cnc(Cl)c3Cl)cc2)c(=O)c1Br` the IC50 was 850 nM. `COc1ccc(Cn2c(N3CCN(S(=O)(=O)c4ccc(OC)cc4)CC3)nc3c2c(=O)n(CC2CC2)c(=O)n3CC2CC2)cc1` gave an IC50 of 890 nM. In the case of `CCC(C)NCCC(c1ccccc1)c1ccccc1O` (stereo not given), the IC50 is reported as 790 nM. With `Cn1cc(CN2CCC(OC(c3ccccc3)c3ccc(Cl)cc3)CC2)cn1` (stereo not given) the IC50 was 840 nM. In the case of `C=CCn1c(Sc2ccc(C#N)c([N+](=O)[O-])c2)nnc1-c1cccc(Cl)c1`, the IC50 is reported as 300 nM. Molecule `COc1cccc(-c2nn(C)c3sc(C(=O)NCCN(C)Cc4ccccc4)cc23)c1` has an IC50 of 810 nM. With `FC(F)(F)c1cccc(CNCC2CCN(CC3CCCCC3)CC2)c1` the IC50 was 400 nM. For `N#Cc1cncc(-c2nc3c(N4CCC(Cc5ccccc5)CC4)cccc3n2C2CCNC2)c1` (stereo not given), the IC50 was 990 nM. `CC1CC(C)CN(S(=O)(=O)c2cc(C(=O)Nc3cccc([N+](=O)[O-])c3)ccc2Br)C1` (stereo not given) was tested, and the IC50 was 900 nM. `CCC(C)NC(=O)Nc1ccc(-c2cccc(-c3nc4ccc(C(F)(F)F)cc4[nH]3)c2)cc1` (stereo not given) was tested, and the IC50 was 620 nM. `Cc1[nH]c(C)c(-c2ccc(Oc3ccc(OC(F)(F)F)cc3)cc2)c(=O)c1Br` was tested, and the IC50 was 560 nM and 110 nM. In the case of `O=C(Nc1ccc(-c2cccc(-c3nc4ccc(C(F)(F)F)cc4[nH]3)c2)cc1)Nc1ccc(F)c(F)c1F`, the IC50 is reported as 710 nM. Molecule `CN1CCC(C(=O)Nc2cccc(-c3ccc(-c4nc5ccc(C(F)(F)F)cc5[nH]4)cc3)c2)CC1` has an IC50 of 680 nM. For `O=C(Nc1cccc(-c2cccc(-c3nc4ccccc4[nH]3)c2)c1)N[C@@H]1C[C@H]1c1ccccc1`, the IC50 was 1070 nM and 900 nM. Molecule `O=C(Nc1ccc(Cl)cc1)Nc1cccc(-c2cccc(-c3nc4ccc(C(F)(F)F)cc4[nH]3)c2)c1` has an IC50 of 230 nM. For `NS(=O)(=O)CCc1cccc(Nc2nccc(-c3c(-c4cccc(NC(=O)c5c(F)cccc5F)c4)nn4ccccc34)n2)c1`, the IC50 was 60 nM. Work on `Oc1ccc(CCNCCCCCCNCCc2ccc(Cl)c3ccccc23)cc1O` yielded an IC50 of 720 nM. `COc1ccc(C2c3ccccc3-c3nc(N)nc(N)c3C2C)cc1` (stereo not given) was tested, and the IC50 was 240 nM. In the case of `Cc1noc(C)c1-c1ccc2c(Nc3cccc4c3-c3ccccc3C4=O)c(C(=O)NCc3ccccc3I)cnc2c1`, the IC50 is reported as 630 nM. `Cc1cc(-c2cc3nc4c(c(=O)n3[nH]2)CCCC4)c(C)o1` was tested, and the IC50 was 820 nM. `N#Cc1ccc2c(c1)CCN(CCC1CCC(NC(=O)c3ccc(-c4ccccn4)s3)CC1)CC2` (stereo not given) was tested, and the IC50 was 1010 nM. In the case of `CCCc1ccc(Nc2nc(C)cc(N(CC)CCCN3CCCCC3)n2)cc1`, the IC50 is reported as 540 nM.
